Laboratory results as given in patent US20190314311A1, “PHARMACEUTICAL COMPOSITION” (JAPAN SCIENCE AND TECHNOLOGY AGENCY, priority 2016, published 2019).

Legend:
[1] = Non-Patent Document 5; cited from earlier work
SCA1 mice = test: balance beam test; format: in vivo, mouse; conditions: 6% arginine in drinking water from 3 weeks; 28 weeks of age; vs untreated SCA1 mice
Procedure: SCA1 mice were also examined using the balance beam test to assess the motor coordination. For balance beam analysis, mice were assessed on their time to cross a beam with 1 m-long and 15 mm-diameter. The beam was placed approximately 50 cm above the ground with a bright light at the starting end and a dark box at the far end. Mice were initially trained for 3 consecutive days, 2 trials each, so that they learn to cross the beam without falling or turning around. On testing days, the time it took the mice to cross the beam was recorded. If the mice took longer than 60 seconds to cross, the score was counted as 60 seconds. Two trials were performed for each mouse, and a faster time was used for analysis.

Thio-Q62 protein [2] = test: protein aggregation turbidity assay; format: biochemical; conditions: 8.2 μM Thio-Q62, 600 mM arginine, PBS, 37° C., neutral pH, 5 days
Procedure: In the subsequent experiments, the protein aggregation turbidity assay was performed by the method described in Non-Patent Document 6. Specifically, it was performed as follows.
(§1) A solution in which abnormally expanded proteins were dissolved in physiological saline phosphate (PBS) was used as a measurement sample. The solution was incubated at 37° C., and turbidity at 405 nm was measured every 24 hours using a microplate reader “Spectramax Plus plate reader” (Molecular Devices Inc.).
As an abnormally expanded PolyQ protein, a Thioredoxin-Q62 (Thio-Q62) fusion protein consisting of Thioredoxin and a PolyQ stretch with 62 glutamines was used.
As a control, Thio-Q62 protein alone was incubated in the same manner, and the turbidity was measured every 24 hours.
As controls, a solution containing Thio-Q62 protein alone, and a solution containing Thio-Q62 protein and 400 mM proline were incubated in the same manner, respectively, and turbidity was measured after 5 days. […] The relative turbidity (%) of each solution was measured. The turbidity of the solution containing Thio-Q62 protein alone was set to 100%. In the figure, values represent means±SEM (n=3). “*” represents p<0.05, “***” represents p<0.001, “n.s.” represents not significant.

amyloid-β (beta) 1-42 = target: T1, amyloid-β (beta) 1-42 (Homo sapiens, UniProt P05067); conditions: Non-Patent Document 2; cited from earlier work
T1 construct: amyloid-β (beta) 1-42
T1 sequence (P05067 672-713 limits assumed): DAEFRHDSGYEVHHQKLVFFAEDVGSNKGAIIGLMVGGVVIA

Thio-Q62 protein [3] = test: native PAGE of β-sheet conformational transition; format: biochemical; conditions: 8.2 μM Thio-Q62, 600 mM arginine, PBS pH 7.5, 37° C., five days
Text: The separated proteins were stained with Coomassie brilliant blue (CBB).

[4] = tested on: Q40-GFP expressing nematode line; test: lifespan analysis in C. elegans model of the PolyQ diseases; format: in vivo, Caenorhabditis elegans; conditions: 10 mM arginine; log-rank P<0.01
Procedure: As a C. elegans model of the polyQ diseases, a Q40-GFP expressing nematode line (Non-Patent Document 14), which is a C. elegans line expressing GFP having a polyQ repeat consisting of 40 glutamines (Q40-GFP) was used.
Nematodes were grown at 20° C. on nematode growth medium (NGM) plates seeded with Escherichia coli OP50. For the generation of the Q40-GFP expression nematode line, plasmids encoding Q40-GFP were injected into wild type strain N2.
For lifespan analysis, nematodes were cultured on OP50 bacteria, and were examined daily for signs of life.

SBMA mice = test: horizontal open-field activity and rearing behavior; format: in vivo, mouse; conditions: 6% arginine in drinking water from 3 weeks; 12 weeks of age
Text: As another PolyQ disease mouse model, the SBMA mouse (Non-Patent Document 18) was used. […] This motor dysfunction can be reversed with drug treatment (Non-Patent Document 19). The SBMA mouse used in this experiment was a kind gift from Dr. Gen Sobue (Nagoya University, Japan).
The motor dysfunction of the SBMA mouse can be monitored as spontaneous motor dysfunction, by measuring horizontal open-field activity and rearing behavior in the cage (Non-Patent Document 18). […] As a control, water without arginine was given to SBMA mice as drinking water (arginine untreated).
Horizontal open-field activity and rearing behavior were measured using a spontaneous locomotor activity monitor “Supermex” (Muromachi Kikai) according to the method described in Non-Patent Document 18. Specifically, a mouse was placed in a measuring cage in which infrared beams were projected inside and were allowed to move around freely. When the mouse moves inside the measuring cage, the infrared beam is obstructed and the infrared ray cannot be detected by the light receiving part (beam break). The number of beam breaks per minute was determined by measuring the number of beam breaks (counts/min). To detect movements in the horizontal direction, the number of beam breaks of the infrared beams projected in the vertical direction were counted. […]

Thio-Q62 protein [5] = test: seed-induced polyQ aggregation reaction (turbidity); format: biochemical; conditions: 10 μM Thio-Q62 + seeds, 400 mM arginine or proline, 37° C., 7 days
Procedure: as §1

MJDtr-Q78(S) flies = test: Drosophila model of the PolyQ diseases (SCA3/MJD); format: in vivo, Drosophila melanogaster
Procedure: The spinocerebellar ataxia type 3 (SCA3/MJD) model flies were used, which express the truncated form of the MJD protein with an abnormally expanded polyQ repeat consisting of 78 glutamines (MJDtr-Q78) in the compound eye (Non-Patent Document 12). The severe compound eye degeneration induced by MJDtrQ78 can be easily detected under the light microscope.
Fly culture and crosses were performed under standard conditions at 25° C. The MJDtr-Q78(S) transgenic fly line bearing the UAS-MJDtr-Q78 transgene for expression of MJDtr-Q78 described in Non-Patent Document 12 was used. The fly line bearing the gmr-GAL4 transgene was obtained from the Drosophila Genetic Resource Center at Kyoto Institute of Technology, Japan. […] For evaluation of compound eye degeneration, light microscopic images of the compound eye were taken using a stereoscopic microscope model “SZX9” (Olympus). For detection of the MJDtr-Q78 protein in eye imaginal discs of third instar larvae, immunostaining with an anti-hemagglutinin antibody (clone 3F10, Roche) was performed according to the method described in Non-Patent Document 13. Fluorescence microscopic images were taken using a confocal laser scanning microscope model “LSM510” (Carl Zeiss).

For `N=C(N)NCCC[C@H](N)C(=O)O` [arginine], the “crossing of the blood brain barrier (BBB)” value [1] is listed as “known to cross the blood brain barrier”, the “time to cross the balance beam” value (SCA1 mice) is listed as “significantly less time” and the “lag phase of turbidity time course” value (Thio-Q62 protein [2]) is listed as “elongated the lag phase”. For the same molecule, the “speed of aggregation (turbidity time course)” value (Thio-Q62 protein [2]) was “decreased the speed of aggregation”, the “aggregation of amyloid-β 1-42” value (amyloid-β (beta) 1-42) was “prevents aggregation” and the “band of β-sheet-rich monomer (native PAGE, CBB)” value (Thio-Q62 protein [3]) was “did not appear even when incubated for a sufficient period of time”. For the same molecule, the survival rate [4] was “significantly improved”, the horizontal activity (SBMA mice) was “improved to levels comparable to untreated wild type mice” and the rearing behavior (SBMA mice) was “improved to levels comparable to untreated wild type mice”. For the same molecule, the “seed-induced increase in turbidity” value (Thio-Q62 protein [5]) was “markedly decreased”, the “number of inclusion bodies in eye discs of larvae” value (MJDtr-Q78(S) flies; food containing arginine (100 mM in FIG. 10)) was “decreased” and the compound eye degeneration (MJDtr-Q78(S) flies; food containing either 25, 50 or 100 mM arginine) was “remarkably ameliorated”.
